Values after ≈ are worked out from the molar mass of the structure shown. Values joined by “and” are separate entries in the source; they are usually repeats but may differ in a detail not shown here. Equal values may be shown once. Read-outs that look alike come from different tables or passages of the source.
Tests used:
Assay type in all cases: cell-based
[1] = system: Staphylococcus aureus; assay: Broth microdilution MIC, 50 clinical isolates (28 MRSA)
Experimental: (§1) Minimal inhibitory concentration (MIC) values were determined by broth microdilution or agar dilution in accordance with guidelines from the Clinical and Laboratory Standards Institute (CLSI; (1) “Methods for Dilution Antimicrobial Susceptibility Tests for Bacteria That Grow Aerobically; Approved Standard; 11th ed.” CLSI standard M07-A11, 2018; (2) “Performance Standards for Antimicrobial Susceptibility Testing; Twenty-Eighth Informational Supplement,” CLSI document M100-S28, 2018; and (3) “Methods for Antimicrobial Susceptibility Testing of Anaerobic Bacteria; Approved Standard—Eighth Edition,” CLSI document M11-A8, 2012).
(§2) Tested aerobically by broth microdilution: • Escherichia coli, n=50 • Klebsiella spp., n=50 • Pseudomonas aeruginosa, n=50 • Streptococcus spp., n=50 • Staphylococcus aureus, n=50 • Enterococcus faecalis, n=50 • Enterobacter aerogenes, n=50 • Proteus mirabilis, n=50
(§3) Broth microdilution testing of aerobic bacteria was conducted in cation-adjusted Mueller Hinton broth (MHBII). For testing streptococci, lysed horse blood (LHB) was added to MHBII broth at a final concentration of 3%. Where LHB was used, it was added after filtering.
(§4) Broth microdilution susceptibility testing in 96-well microplates was conducted in accordance with CLSI methods (1) and (2). Automated liquid handlers were used to conduct serial dilutions and liquid transfers, including the Multidrop 384 (Labsystems, Helsinki, Finland), Biomek 2000, and the Biomek FX (Beckman Coulter, Fullerton, Calif.). All wells in columns 2 through 12 of a standard 96-well microdilution plate (Costar 3795) were filled with 150 μL of the appropriate diluent. Then, 300 μL of the test agents were added to the wells of column 1 of the plates at 100× the highest final concentration to be tested. Serial two-fold dilutions were made across the rows through column 11 using the Biomek 2000. The wells of column 12 contained no drug and served as the growth control wells. This plate served as the “mother plate” from which MIC assay plates or “daughter plates” were made.
(§5) The daughter plates were loaded with 190 μL per well of the appropriate medium using the Multidrop 384. The daughter plates were created using the Biomek FX which transferred 2 μL of drug solution from each well of a mother plate to each corresponding well of the daughter plate in a single step. A standardized inoculum of each test organism was prepared per CLSI methods (1) to equal a 0.5 McFarland standard, followed by a dilution of 1:20 for aerobes and 1:10 for anaerobes. The plates were then inoculated with 10 μL of the diluted inoculum using the Biomek 2000 from low to high drug concentration, resulting in a final concentration of approximately 5×10^5 CFU/mL per well. An un-inoculated plate was incubated in parallel for each medium for the purpose of assessing solubility of the drug in the test media.
(§6) Inoculated plates were stacked 3 or 4 high, covered with a sterile lid on the top plate, placed into boxes with CO2 planchets (streptococci) or plastic bags (all other isolates). Plates were incubated at 35° C. for 16-24 hr in ambient air for aerobes or for 42-48 hr in the anaerobic environment of the Bactron II anaerobe chamber (Sheldon Manufacturing Co.; Cornelius, Oreg.). Following incubation, the microplates were removed from the incubator and viewed from the bottom using a plate viewer. The MIC values were read and recorded as the lowest concentration of drug that inhibited visible growth of the organism as per CLSI methods (1) and (2).

[2] = system: Streptococcus spp.; assay: Broth microdilution MIC, 54 clinical isolates; conditions: for Mode: modal MIC
Experimental: as §1, §2, §3, §4, §5, §6

[3] = system: Viridans group Streptococcus; assay: Broth microdilution MIC, 15 clinical isolates; conditions: for Mode: modal MIC
Experimental: as §1, §2, §3, §4, §5, §6

[4] = system: Enterococcus faecalis; assay: Broth microdilution MIC, 50 clinical isolates
Experimental: as §1, §2, §3, §4, §5, §6

[5] = system: Streptococcus spp. clinical isolates; assay: MIC distribution against clinical isolates; conditions: 54 Streptococcus spp. isolates
Text: (n=19 S. pyogenes, n=20 S. agalactiae and n=20 Viridans group Streptococcus) clinical isolates (μg/mL).
As used herein, “minimum inhibitory concentration” or “MIC” refers to the lowest concentration of an antimicrobial agent, for example, an antimicrobial agent as described herein, required to inhibit the growth of an organism. […] “MIC90” represents the MIC value at which ≥90% of the strains within a test population are inhibited; the 90th percentile.
(§7) Many susceptibility testing methods are known in the art and can be used as described herein (see, e.g., Jorgensen and Ferraro (2009) Clinical Infectious Diseases 49:1749-1755; and Maurer et al. (2017) Infectious Disease Reports 9:6839; the entire contents of each of the foregoing are incorporated herein by reference). For example, antimicrobial susceptibility can be determined using conventional culture based methods such as the broth or agar dilution test. In these dilution tests, the bacterial isolate of interest is inoculated onto different media that include serial dilutions of an antimicrobial agent, and incubated under appropriate conditions (e.g., overnight at 37° C.) to allow for growth to occur. Following the incubation period, the media is examined to determine bacterial growth. The lowest concentration of antibiotic that prevents growth represents the minimal inhibitory concentration (MIC). Broth dilution tests can be miniaturized and mechanized allowing for reproducibility and high throughput.

[6] = system: Staphylococcus aureus clinical isolates; assay: MIC distribution against clinical isolates
Text: As used herein, “minimum inhibitory concentration” or “MIC” refers to the lowest concentration of an antimicrobial agent, for example, an antimicrobial agent as described herein, required to inhibit the growth of an organism.
as §7

[7] = 54 Streptococcus spp. clinical isolates
[8] = 54 Streptococcus spp. clinical isolates, MXF by FDA breakpoints
[9] = 15 Viridans group Streptococci clinical isolates
[10] = 15 Viridans group Streptococci clinical isolates, MXF by FDA breakpoints
[11] = MIC 0.008 μg/mL, 50 S. aureus isolates
[12] = MIC 2 μg/mL, 50 S. aureus isolates
[13] = MIC 4 μg/mL, 50 S. aureus isolates
[14] = MIC 8 μg/mL, 50 S. aureus isolates
[15] = MIC 32 μg/mL, 50 S. aureus isolates
[16] = MIC 64 μg/mL, 50 S. aureus isolates
[17] = MIC >64 μg/mL, 50 S. aureus isolates

## CO/N=C(\C(=O)N[C@@H]1C(=O)N2C(C(=O)O)=C(CSc3nc(=O)c(=O)[nH]n3C)CS[C@H]12)c1csc(N)n1 [ceftriaxone]
[1]
  Mode: >64 µg/mL
[1]; Staphylococcus aureus, read-out: MIC50
  MIC50: 32 µg/mL (≈ 57.7 µM)
[1]; Staphylococcus aureus, read-out: MIC90
  MIC90: > 64 µg/mL
[1]; listed as CTR
  MIC90: >64 µg/mL
[2]
  isolates susceptible: 100%
[2]; [7]
  MIC50: 0.03 µg/mL (≈ 0.0541 µM)
  MIC90: 0.12 µg/mL (≈ 0.216 µM)
  MIC range: 0.008 to 1 µg/mL
  Mode: 0.06 µg/mL
[2]; [8]
  % S: 100%
[2]; Streptococcus, read-out: MIC50
  MIC50: 0.03 µg/mL (≈ 0.0541 µM)
[2]; Streptococcus, read-out: MIC90
  MIC90: 0.12 µg/mL (≈ 0.216 µM)
[3]; [9]
  MIC50: 0.06 µg/mL (≈ 0.108 µM)
  MIC90: 0.5 µg/mL (≈ 0.902 µM)
  MIC range: 0.008 to 1 µg/mL
  Mode: 0.06 µg/mL
[3]; [10]
  % S: 100%
[3]; Streptococcus, read-out: MIC50
  MIC50: 0.06 µg/mL (≈ 0.108 µM)
[3]; Streptococcus, read-out: MIC90
  MIC90: 0.5 µg/mL (≈ 0.902 µM)
[4]
  Mode: >64 µg/mL
[4]; Enterococcus faecalis, read-out: MIC50
  MIC50: > 64 µg/mL
[4]; Enterococcus faecalis, read-out: MIC90
  MIC90: > 64 µg/mL
[4]; listed as CTR
  MIC50: >64 µg/mL
  MIC90: >64 µg/mL
[5]; MIC 0.008 μg/mL
  Cumulative percentage of isolates inhibited at MIC: 1.9%
  Number of test isolates at MIC: 1
[5]; MIC 0.015 μg/mL
  Cumulative percentage of isolates inhibited at MIC: 35.2%
  Number of test isolates at MIC: 18
[5]; MIC 0.03 μg/mL
  Cumulative percentage of isolates inhibited at MIC: 51.9%
  Number of test isolates at MIC: 9
[5]; MIC 0.06 μg/mL
  Cumulative percentage of isolates inhibited at MIC: 87.0%
  Number of test isolates at MIC: 19
[5]; MIC 0.5 μg/mL
  Cumulative percentage of isolates inhibited at MIC: 98.1%
  Number of test isolates at MIC: 1
[5]; MIC 1 μg/mL
  Cumulative percentage of isolates inhibited at MIC: 100.0%
  Number of test isolates at MIC: 1
[6]; [11]
  Number of test isolates at MIC: 0
[6]; [12]
  Cumulative percentage of isolates inhibited at MIC: 6.0%
  Number of test isolates at MIC: 3
[6]; [13]
  Cumulative percentage of isolates inhibited at MIC: 38.0%
  Number of test isolates at MIC: 16
[6]; [14]
  Cumulative percentage of isolates inhibited at MIC: 44.0%
  Number of test isolates at MIC: 3
[6]; [15]
  Cumulative percentage of isolates inhibited at MIC: 52.0%
  Number of test isolates at MIC: 4
[6]; [16]
  Cumulative percentage of isolates inhibited at MIC: 56.0%
  Number of test isolates at MIC: 2
[6]; MIC >16 μg/mL, 50 S. aureus isolates
  Number of test isolates at MIC: 2
[6]; [17]
  Cumulative percentage of isolates inhibited at MIC: 100.0%
  Number of test isolates at MIC: 22

## CO[C@H]1/C=C/O[C@@]2(C)Oc3c(C)c(O)c4c(O)c(c5c(nc6cc(C)ccn65)c4c3C2=O)NC(=O)/C(C)=C\C=C\[C@H](C)[C@H](O)[C@@H](C)[C@@H](O)[C@@H](C)[C@H](OC(C)=O)[C@@H]1C [rifaximin]
[1]
  MIC50: 0.015 µg/mL (≈ 0.0191 µM)
  MIC90: 0.06 µg/mL (≈ 0.0763 µM)
  MIC range: 0.008 to 32 µg/mL
  Mode: 0.015 µg/mL
  relative activity among drugs tested: most active drug tested
[2]
  MIC50: 0.12 µg/mL (≈ 0.153 µM)
  MIC90: 0.25 µg/mL (≈ 0.318 µM)
[2]; [7]
  MIC50: 0.12 µg/mL (≈ 0.153 µM)
  MIC90: 0.25 µg/mL (≈ 0.318 µM)
  MIC range: 0.015 to 0.3 µg/mL
  Mode: 0.12 µg/mL
[3]
  MIC50: 0.06 µg/mL (≈ 0.0763 µM)
  MIC90: 0.12 µg/mL (≈ 0.153 µM)
[3]; [9]
  MIC50: 0.06 µg/mL (≈ 0.0763 µM)
  MIC90: 0.12 µg/mL (≈ 0.153 µM)
  MIC range: 0.015 to 0.1 µg/mL
  Mode: 0.06 µg/mL
[4]
  MIC50: 2 µg/mL (≈ 2.54 µM)
  MIC90: 4 µg/mL (≈ 5.09 µM)
  Mode: 1 µg/mL
  relative activity among drugs tested: slightly more active than meropenem
[6]; [11]
  Cumulative percentage of isolates inhibited at MIC: 8.0%
[6]; [15]
  Cumulative percentage of isolates inhibited at MIC: 100.0%
  Number of test isolates at MIC: 1
[6]; listed as RFX
  Cumulative percentage of isolates inhibited at MIC: 70.0% and 78.0% and 94.0% and 98.0%

## Penicillin
[2]; [7]
  MIC50: 0.03 µg/mL
  MIC90: 0.25 µg/mL
  MIC range: ≤0.004-1^ μg/mL
  Mode: 0.03 µg/mL
[2]; [8]
  % I: 11% ^
  % S: 89%
[3]; [9]
  MIC50: 0.03 µg/mL
  MIC90: 1 µg/mL
  MIC range: 0.008 to 1 µg/mL
  Mode: 0.015 µg/mL
[3]; [10]
  % I: 40% ^
  % S: 60%
[5]; MIC 0.008 μg/mL
  Cumulative percentage of isolates inhibited at MIC: 35.2%
  Number of test isolates at MIC: 9
[5]; MIC 1 μg/mL
  Cumulative percentage of isolates inhibited at MIC: 100.0%
[5]; MIC ≤0.004 μg/mL
  Cumulative percentage of isolates inhibited at MIC: 18.5%
  Number of test isolates at MIC: 10
